SMILES strings stand for the structures.

Test [1] concerns the target T1, hGPR40 (Homo sapiens, UniProt O14842). Kind of test: GPR40 IP-One HTRF assay in HEK293/GPR40 inducible cell lines (hGPR40 IP1 EC50). The format is cell-based. Details: expressed in transfected cells. The conditions noted are these: HEK293 cells with tetracycline-inducible human GPR40, IP-One HTRF. Here is the method:
GPR40 IP-One HTRF Assays in HEK293/GPR40 Inducible Cell Lines
Human, mouse and rat GPR40-mediated intracellular IP-One HTRF assays were established using human embryonic kidney HEK293 cells stably transfected with a tetracycline-inducible human, mouse or rat GPR40 receptor. Cells were routinely cultured in growth medium containing DMEM (Gibco Cat. #12430-047), 10% qualified FBS (Sigma, Cat. #F2442), 200 μg/mL hygromycin (Invitrogen, Cat. #16087-010) and 1.5 μg/mL blasticidin (Invitrogen, Cat. #R210-01). About 12-15 million cells were passed into a T175 tissue culture flask (BD Falcon 353112) with growth medium and incubated for 16-18 hours (overnight) at 37° C. with 5% CO2. The next day, assay medium was exchanged with growth medium containing 1000 ng/mL of tetracycline (Fluka Analytical, Cat. #87128) to induce GPR40 expression for 18-24 hours at 37° C. incubator with 5% CO2. After induction, the cells were washed with PBS (Gibco, Cat. #14190-036) and detached with Cell Stripper (Cellgro, Cat. #25-056-CL). 10-20 mL growth medium were added to the flask and cells were collected in 50 mL tubes (Falcon, Cat. #352098) and spun at 1000 RPM for 5 minutes. Culture medium was aspirated and the cells were resuspended in 10 mL of 1× IP-One Stimulation Buffer from the Cisbio IP-One kit (Cisbio, Cat. #62IPAPEJ). The cells were diluted to 1.4×10^6 cells/mL in Stimulation Buffer.
Test compounds were 3-fold, 11-point serially diluted in DMSO in a REMP assay plate (Matrix Cat. #4307) by Biocel (Agilent). The compounds were transferred into an Echo plate (Labcyte, Cat. #LP-0200) and 20 nL of diluted compounds were transferred to an assay plate (proxi-plate from Perkin Elmer, Cat. #6008289) by Echo acoustic nano dispenser (Labcyte, model ECHO550). 14 μL of the diluted cells were then added to the assay plate by Thermo (SN 836 330) Combi Drop and incubated at room temperature for 45 minutes. Then 3 μL of IP1 coupled to dye D2 from the Cisbio IP-One kit were added to the assay plate followed by 3 μL of Lumi4-Tb cryptate K from the kit. The plate was further incubated at room for 1 hour before reading on the Envision (Perkin Elmer Mode12101) with an HTRF protocol. Activation data for the test compound over a range of concentrations was plotted as percentage activation of the test compound (100%=maximum response). After correcting for background [(sample read-mean of low control)/(mean of high control-mean of low control)](low control is DMSO without any compound), EC50 values were determined. […] The maximal Y value observed (% Ymax) was calculated relative to a BMS standard reference compound at a final concentration of 0.625 μM.
Background: Time-resolved FRET reads energy transfer from a long-lived donor to a nearby acceptor.

For test [2], the target named is T1, hGPR40. Kind of test: FDSS-based intracellular calcium assay (hGPR40 EC50). The format is cell-based. Also on record: 3xFLAG; expressed in transfected cells. The conditions noted are these: cells expressing GPR40, intracellular Ca2+ response, FDSS reader. How it is done:
FDSS-Based Intracellular Calcium Assay
Cell lines expressing GPR40 are generated using the pDEST-3×FLAG gene expression system and are cultured in culture medium comprising the following components: F12 (Gibco #11765), 10% lipid deprived fetal bovine serum, 250 μg/mL zeocin and 500 μg/mL G418. To conduct the fluorescent imaging plate reader (FLIPR)-based calcium flux assay to measure intracellular Ca^2+ response, cells expressing GPR40 are plated on 384 well plates (BD Biocoat #356697) at a density of 20,000 cells/20 μL medium per well in phenol red and serum-free DMEM (Gibco #21063-029) and incubated overnight. Using BD kit #s 80500-310 or -301, the cells are incubated with 20 μL per well of Hank's buffered salt solution with 1.7 mM probenecid and Fluo-3 at 37° C. for 30 min. Compounds are dissolved in DMSO and diluted to desired concentrations with assay buffer and added to the cells as 3× solution (20 μL per well). Run fluorescence/luminescence reader FDSS (Hamamatsu) to read intracellular Ca^2+ response.
(In general: A change in cytosolic calcium serves as a functional read-out for many receptors and channels.)

T1 sequence (O14842 whole entry): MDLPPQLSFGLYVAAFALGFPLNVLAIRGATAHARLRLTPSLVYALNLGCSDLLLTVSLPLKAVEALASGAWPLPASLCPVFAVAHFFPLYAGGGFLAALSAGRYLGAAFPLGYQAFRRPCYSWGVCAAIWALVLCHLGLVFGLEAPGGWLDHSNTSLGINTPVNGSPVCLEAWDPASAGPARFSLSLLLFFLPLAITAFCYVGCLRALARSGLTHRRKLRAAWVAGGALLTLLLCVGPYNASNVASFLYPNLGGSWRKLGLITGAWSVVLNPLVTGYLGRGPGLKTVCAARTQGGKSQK

The term EC50 denotes the concentration needed to bring the measured effect to its halfway point. For the molecule `COc1cc(N2CC[C@@H](Oc3cnc(N4C[C@H](OC)[C@@H](C)[C@@H]4CC(=O)O)cn3)[C@H](C)C2)c(Cl)cn1` [Example 1, 2-((2S,3S,4R)-1-(5-((3R,4R)-1-(5-Chloro-2-methoxypyridin-4-yl)-3-methylpiperidin-4-yloxy)pyrazin-2-yl)-4-methoxy-3-methylpyrrolidin-2-yl)acetic acid], the EC50 at hGPR40 [1] was 14 nM; on hGPR40 [2] it was 72 nM. For `COCCCO[C@H]1CN(c2cnc(O[C@@H]3CCN(c4cc(OC)ncc4Cl)C[C@H]3C)cn2)[C@@H](CC(=O)O)[C@@H]1C` [Example 2, 2-((2S,3S,4R)-1-(5-((3R,4R)-1-(5-Chloro-2-methoxypyridin-4-yl)-3-methylpiperidin-4-yloxy)pyrazin-2-yl)-4-(3-methoxypropoxy)-3-methylpyrrolidin-2-yl)acetic acid], in that order: 4 nM and 43 nM. `CCOc1ccc(F)c(N2CC[C@@H](Oc3cnc(N4C[C@H](OC)[C@@H](C)[C@@H]4CC(=O)O)cn3)[C@H](C)C2)c1` [Example 3, 2-((2S,3S,4R)-1-(5-((3R,4R)-1-(5-Ethoxy-2-fluorophenyl)-3-methylpiperidin-4-yloxy)pyrazin-2-yl)-4-methoxy-3-methylpyrrolidin-2-yl)acetic acid]: the EC50 on hGPR40 [1] was found to be 21 nM; at hGPR40 [2], 42 nM. Take `CCOc1ccc(F)c(N2CC[C@@H](Oc3cnc(N4C[C@H](OCCCOC)[C@@H](C)[C@@H]4CC(=O)O)cn3)[C@H](C)C2)c1` [Example 4, 2-((2S,3S,4R)-1-(5-((3R,4R)-1-(5-Ethoxy-2-fluorophenyl)-3-methylpiperidin-4-yloxy)pyrazin-2-yl)-4-(3-methoxypropoxy)-3-methylpyrrolidin-2-yl)acetic acid]: the EC50 on hGPR40 [2] is 45 nM. Still for that read-out and setting: with `CCOc1ccc(F)c(N2CC[C@@H](Oc3cnc(N4CC(OCCCOC)C(C)C4CC(=O)O)cn3)[C@H](C)C2)c1` (stereo partly drawn) [Example 5, 2-(1-(5-(((3R,4R)-1-(5-Ethoxy-2-fluorophenyl)-3-methylpiperidin-4-yl)oxy)pyrazin-2-yl)-4-(3-methoxypropoxy)-3-methylpyrrolidin-2-yl)acetic acid] the figure was 837 nM. With `COc1cc(N2CC[C@@H](Oc3cnc(N4C[C@H](OC)C[C@@H]4CC(=O)O)cn3)[C@H](C)C2)c(Cl)cn1` [Example 6, 2-((2R,4R)-1-(5-((3R,4R)-1-(5-Chloro-2-methoxypyridin-4-yl)-3-methylpiperidin-4-yloxy)pyrazin-2-yl)-4-methoxypyrrolidin-2-yl)acetic acid], the figures for the EC50 at hGPR40 [1] and at hGPR40 [2] were 44 nM and 150 nM, respectively. `COc1cc(N2CC[C@@H](Oc3cnc(N4C[C@H](OC)C[C@H]4CC(=O)O)cn3)[C@H](C)C2)c(Cl)cn1` [Example 7, 2-((2S,4R)-1-(5-((3R,4R)-1-(5-Chloro-2-methoxypyridin-4-yl)-3-methylpiperidin-4-yloxy)pyrazin-2-yl)-4-methoxypyrrolidin-2-yl)acetic acid]: at hGPR40 [2], the EC50 was determined as 3230 nM. The same measure, in the same setting: next, `COc1cc(N2CC[C@@H](Oc3cnc(N4C[C@H](C(F)(F)F)C[C@H]4CC(=O)O)cn3)[C@H](C)C2)c(Cl)cn1` [Example 8, 2-((2S,4R)-1-(5-((3R,4R)-1-(5-Chloro-2-methoxypyridin-4-yl)-3-methylpiperidin-4-yloxy)pyrazin-2-yl)-4-(trifluoromethyl)pyrrolidin-2-yl)acetic acid]: 955 nM.

For `COc1cc(N2CC[C@@H](Oc3cnc(N4C[C@H](C(F)(F)F)C[C@@H]4CC(=O)O)cn3)[C@H](C)C2)c(Cl)cn1` [Example 9, 2-((2R,4R)-1-(5-((3R,4R)-1-(5-Chloro-2-methoxypyridin-4-yl)-3-methylpiperidin-4-yloxy)pyrazin-2-yl)-4-(trifluoromethyl)pyrrolidin-2-yl)acetic acid], the EC50 at hGPR40 [2] worked out at 84 nM.

The record behind these values is patent US10017497B2, “Pyrrolidine GPR40 modulators for the treatment of diseases such as diabetes” (BRISTOL-MYERS SQUIBB COMPANY, priority 2014, dated 2018).
